Assay results taken from PubChem BioAssay AID1963958 (Molecular Pharmacology Branch, DTP, NCI, 2024).

Tested on: MDA-MB-231 multicell spheroids, viability
Assay: Anticancer human tumor MDA-MB-231 cell line growth inhibition [PI3K];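 note: spheroids exposed to agents for seven days before reading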;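 for viability, T/C: percent of vehicle control luminescence with DMSO treated spheroids as 100%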
Conditions: for IC50: curve of first compound; for viability, T/C: stronger effect = lower value
Method in brief: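 Multi-cell spheroids combine tumor cells with HUVEC and human MSCs, treated with targeted agents alone or with inavolisib, alpelisib, duvelisib or copanlisib. Concentrations fall in half-log steps from at or near clinical Cmax, or from 10 microM where Cmax is unknown; viability read-out.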

[1] = second compound 0.00316 µM, first compound 0.0316 µM
[2] = second compound 0.00316 µM, first compound 0.1 µM
[3] = second compound 0.01 µM, first compound 0.0316 µM
[4] = second compound 0.01 µM, first compound 0.1 µM
[5] = second compound 0.0316 µM, first compound 0.0316 µM
[6] = second compound 0.0316 µM, first compound 0.1 µM
[7] = second compound 0.1 µM, first compound 0.0316 µM
[8] = second compound 0.1 µM, first compound 0.1 µM
[9] = second compound 0.316 µM, first compound 0.0316 µM
[10] = second compound 0.316 µM, first compound 0.1 µM
[11] = second compound 1 µM, first compound 0.0316 µM
[12] = second compound 1 µM, first compound 0.1 µM

Q: With `Cn1nccc1Nc1nccc(-c2ccn(C(CO)c3ccc(Cl)c(F)c3)c(=O)c2)n1` (centres undefined) + COc1c(OCCCN2CCOCC2)ccc2c3n(c(=NC(=O)c4cnc(N)nc4)nc12)CCN3 as the molecule, how does the IC50 (second compound 0.00316 µM) read?
A: Its IC50 is 467 nM.

Q: And the IC50 (second compound 0.01 µM)?
A: Its IC50 is 222 nM.

Q: And the IC50 (second compound 0.0316 µM)?
A: The IC50 was 48.2 nM.

Q: And the IC50 (second compound 0.1 µM)?
A: Its IC50 is less than 31.6 nM.

Q: What about the IC50 (second compound 0.316 µM) of the same molecule?
A: The IC50 was less than 31.6 nM.

Q: What about the IC50 (second compound 1 µM) of the same molecule?
A: Its IC50 is less than 31.6 nM.

Q: And the viability, T/C [1]?
A: The viability, T/C was 74.5%.

Q: And the viability, T/C [2]?
A: Its viability, T/C is 69.9%.

Q: What about the viability, T/C (second compound 0.00316 µM, first compound 0.316 µM) of the same molecule?
A: Its viability, T/C is 48.3%.

Q: And the viability, T/C (second compound 0.00316 µM, first compound 1 µM)?
A: Its viability, T/C is 44%.

Q: And the viability, T/C (second compound 0.00316 µM, first compound 3.16 µM)?
A: The viability, T/C was 37.7%.

Q: And the viability, T/C (second compound 0.00316 µM, first compound 10 µM)?
A: Its viability, T/C is 28%.

Q: And the viability, T/C [3]?
A: Its viability, T/C is 65.9%.

Q: And the viability, T/C [4]?
A: Its viability, T/C is 58.6%.

Q: And the viability, T/C (second compound 0.01 µM, first compound 0.316 µM)?
A: Its viability, T/C is 46%.

Q: What about the viability, T/C (second compound 0.01 µM, first compound 1 µM) of the same molecule?
A: Its viability, T/C is 34.8%.

Q: And the viability, T/C (second compound 0.01 µM, first compound 3.16 µM)?
A: Its viability, T/C is 28.3%.

Q: And the viability, T/C (second compound 0.01 µM, first compound 10 µM)?
A: Its viability, T/C is 23.5%.

Q: What about the viability, T/C [5] of the same molecule?
A: Its viability, T/C is 50.3%.

Q: What about the viability, T/C [6] of the same molecule?
A: The viability, T/C was 48.9%.

Q: And the viability, T/C (second compound 0.0316 µM, first compound 0.316 µM)?
A: Its viability, T/C is 41.8%.

Q: And the viability, T/C (second compound 0.0316 µM, first compound 1 µM)?
A: The viability, T/C was 32.5%.

Q: And the viability, T/C (second compound 0.0316 µM, first compound 3.16 µM)?
A: Its viability, T/C is 26.6%.

Q: What about the viability, T/C (second compound 0.0316 µM, first compound 10 µM) of the same molecule?
A: The viability, T/C was 20.4%.

Q: And the viability, T/C [7]?
A: Its viability, T/C is 41.6%.

Q: What about the viability, T/C [8] of the same molecule?
A: The viability, T/C was 34.3%.

Q: What about the viability, T/C (second compound 0.1 µM, first compound 0.316 µM) of the same molecule?
A: Its viability, T/C is 29.3%.

Q: And the viability, T/C (second compound 0.1 µM, first compound 1 µM)?
A: The viability, T/C was 25.9%.

Q: What about the viability, T/C (second compound 0.1 µM, first compound 3.16 µM) of the same molecule?
A: Its viability, T/C is 22.4%.

Q: What about the viability, T/C (second compound 0.1 µM, first compound 10 µM) of the same molecule?
A: Its viability, T/C is 13.1%.

Q: And the viability, T/C [9]?
A: The viability, T/C was 25.8%.

Q: And the viability, T/C [10]?
A: Its viability, T/C is 22.8%.

Q: And the viability, T/C (second compound 0.316 µM, first compound 0.316 µM)?
A: Its viability, T/C is 17.8%.

Q: What about the viability, T/C (second compound 0.316 µM, first compound 1 µM) of the same molecule?
A: Its viability, T/C is 17%.

Q: And the viability, T/C (second compound 0.316 µM, first compound 3.16 µM)?
A: Its viability, T/C is 13.2%.

Q: And the viability, T/C (second compound 0.316 µM, first compound 10 µM)?
A: The viability, T/C was 8.91%.

Q: And the viability, T/C [11]?
A: Its viability, T/C is 20.8%.

Q: And the viability, T/C [12]?
A: The viability, T/C was 16.8%.

Q: What about the viability, T/C (second compound 1 µM, first compound 0.316 µM) of the same molecule?
A: The viability, T/C was 13.8%.

Q: What about the viability, T/C (second compound 1 µM, first compound 1 µM) of the same molecule?
A: The viability, T/C was 12.7%.

Q: And the viability, T/C (second compound 1 µM, first compound 3.16 µM)?
A: Its viability, T/C is 10.5%.

Q: What about the viability, T/C (second compound 1 µM, first compound 10 µM) of the same molecule?
A: The viability, T/C was 7.95%.

Q: For `Cn1ncnc1[C@H]1c2n[nH]c(=O)c3cc(F)cc(c23)N[C@@H]1c1ccc(F)cc1` + COc1c(OCCCN2CCOCC2)ccc2c3n(c(=NC(=O)c4cnc(N)nc4)nc12)CCN3, which IC50 (second compound 0.00316 µM) is on record?
A: The IC50 was greater than 100 nM.

Q: What about the IC50 (second compound 0.01 µM) of the same molecule?
A: Its IC50 is greater than 100 nM.

Q: And the IC50 (second compound 0.0316 µM)?
A: Its IC50 is 38.4 nM.

Q: And the IC50 (second compound 0.1 µM)?
A: The IC50 was less than 0.316 nM.

Q: And the IC50 (second compound 0.316 µM)?
A: The IC50 was less than 0.316 nM.

Q: What about the IC50 (second compound 1 µM) of the same molecule?
A: The IC50 was less than 0.316 nM.

Q: And the viability, T/C (second compound 0.00316 µM, first compound 0.000316 µM)?
A: The viability, T/C was 94%.

Q: What about the viability, T/C (second compound 0.00316 µM, first compound 0.001 µM) of the same molecule?
A: The viability, T/C was 89.6%.

Q: And the viability, T/C (second compound 0.00316 µM, first compound 0.00316 µM)?
A: The viability, T/C was 91.4%.

Q: What about the viability, T/C (second compound 0.00316 µM, first compound 0.01 µM) of the same molecule?
A: Its viability, T/C is 78.5%.

Q: And the viability, T/C [1]?
A: Its viability, T/C is 78.5%.

Q: What about the viability, T/C [2] of the same molecule?
A: Its viability, T/C is 72.9%.

Q: And the viability, T/C (second compound 0.01 µM, first compound 0.000316 µM)?
A: Its viability, T/C is 76.4%.

Q: And the viability, T/C (second compound 0.01 µM, first compound 0.001 µM)?
A: The viability, T/C was 76.7%.

Q: What about the viability, T/C (second compound 0.01 µM, first compound 0.00316 µM) of the same molecule?
A: Its viability, T/C is 68.9%.

Q: What about the viability, T/C (second compound 0.01 µM, first compound 0.01 µM) of the same molecule?
A: The viability, T/C was 64.8%.

Q: And the viability, T/C [3]?
A: Its viability, T/C is 67.2%.

Q: And the viability, T/C [4]?
A: Its viability, T/C is 60.3%.

Q: What about the viability, T/C (second compound 0.0316 µM, first compound 0.000316 µM) of the same molecule?
A: Its viability, T/C is 57.8%.

Q: What about the viability, T/C (second compound 0.0316 µM, first compound 0.001 µM) of the same molecule?
A: Its viability, T/C is 59.2%.

Q: What about the viability, T/C (second compound 0.0316 µM, first compound 0.00316 µM) of the same molecule?
A: The viability, T/C was 53.8%.

Q: What about the viability, T/C (second compound 0.0316 µM, first compound 0.01 µM) of the same molecule?
A: The viability, T/C was 53.5%.

Q: And the viability, T/C [5]?
A: Its viability, T/C is 51.7%.

Q: And the viability, T/C [6]?
A: Its viability, T/C is 46.1%.

Q: What about the viability, T/C (second compound 0.1 µM, first compound 0.000316 µM) of the same molecule?
A: Its viability, T/C is 46.4%.

Q: And the viability, T/C (second compound 0.1 µM, first compound 0.001 µM)?
A: The viability, T/C was 46.6%.

Q: What about the viability, T/C (second compound 0.1 µM, first compound 0.00316 µM) of the same molecule?
A: Its viability, T/C is 43%.

Q: What about the viability, T/C (second compound 0.1 µM, first compound 0.01 µM) of the same molecule?
A: The viability, T/C was 43.7%.

Q: And the viability, T/C [7]?
A: The viability, T/C was 39.7%.

Q: And the viability, T/C [8]?
A: The viability, T/C was 37.5%.

Q: What about the viability, T/C (second compound 0.316 µM, first compound 0.000316 µM) of the same molecule?
A: The viability, T/C was 31.8%.

Q: What about the viability, T/C (second compound 0.316 µM, first compound 0.001 µM) of the same molecule?
A: The viability, T/C was 32.3%.

Q: What about the viability, T/C (second compound 0.316 µM, first compound 0.00316 µM) of the same molecule?
A: Its viability, T/C is 32.4%.

Q: And the viability, T/C (second compound 0.316 µM, first compound 0.01 µM)?
A: Its viability, T/C is 29.6%.

Q: And the viability, T/C [9]?
A: The viability, T/C was 30.1%.

Q: And the viability, T/C [10]?
A: The viability, T/C was 25.7%.

Q: And the viability, T/C (second compound 1 µM, first compound 0.000316 µM)?
A: The viability, T/C was 24.4%.

Q: What about the viability, T/C (second compound 1 µM, first compound 0.001 µM) of the same molecule?
A: The viability, T/C was 23.5%.

Q: And the viability, T/C (second compound 1 µM, first compound 0.00316 µM)?
A: Its viability, T/C is 24.6%.

Q: And the viability, T/C (second compound 1 µM, first compound 0.01 µM)?
A: The viability, T/C was 23.5%.

Q: And the viability, T/C [11]?
A: The viability, T/C was 25.7%.

Q: What about the viability, T/C [12] of the same molecule?
A: The viability, T/C was 22.4%.
